Series [1] concerns CYP3A4 protein in HepG2 cells. Nature of the series: CYP3A4 protein expression (Western blot) in HepG2 cells. The conditions noted are these: 48 h. As for the experimental part:
Total protein extracts were prepared as described elsewhere. SDS–PAGE gels (10%) were run on a BioRad apparatus according to the general procedure followed by the protein transfer onto PVDF membrane. The membrane was saturated with 5% non-fat dried milk for 1 h at room temperature. […] Chemiluminescent detection was performed using horseradish peroxidase-conjugated secondary antibodies (Santa Cruz Biotechnology) and Western blotting Luminol kit (Santa Cruz Biotechnology). The density of bands was measured by densitometry.
Density of bands was quantified by densitometry.

Series [2] deals with LS174T cells. Nature of the series: MTT cytotoxicity test in LS174T cells. The conditions noted are these: for viability of LS174T cells (in words): MTT, 24 h, LAN up to 100 µM, OME up to 250 µM. How it is done: (§1) A stably transfected gene reporter cell line AZ-GR was used for assessment of GR transcriptional activity. A transiently transfected LS174T human colon adenocarcinoma cells were used for assessment of PXR transcriptional activity. […] The reporter plasmid was transiently transfected to LS174T cells by lipofection (FuGENE 6) with 300 ng/well of p3A4-luc reporter in 24-well plates. Cells were incubated for 24 h with tested compounds and/or vehicle (DMSO; 0.1% v/v), in the presence or absence of RIF (10 µM; LS174T cells) or DEX (100 nM; AZ-GR cells). After the treatments, cells were lysed and luciferase activity was measured. In parallel, cell viability was determined by conventional MTT test.
(§2) Gene reporter assays were performed in two different experimental layouts.
(§3) Treatments were performed in triplicates. Upper panels: MTT test was performed and absorbance was measured at 540 nm. The data are the mean from experiments from three consecutive passages of cells and are expressed as a percentage of viability of control cells. The values of IC50 were calculated and are indicated in a figure. […] The data are the mean from experiments from four consecutive passages of cells and are expressed as a percentage of maximal induction attained by RIF. […] The data are the mean from experiments from four consecutive passages of cells and are expressed as a fold induction of luciferase activity over control cells.
Background: Tetrazolium dyes change colour on reduction, which living cells bring about.

The target in series [3] is T1, glucocorticoid receptor GR (Homo sapiens, UniProt P04150).
T1 sequence (P04150 1-777): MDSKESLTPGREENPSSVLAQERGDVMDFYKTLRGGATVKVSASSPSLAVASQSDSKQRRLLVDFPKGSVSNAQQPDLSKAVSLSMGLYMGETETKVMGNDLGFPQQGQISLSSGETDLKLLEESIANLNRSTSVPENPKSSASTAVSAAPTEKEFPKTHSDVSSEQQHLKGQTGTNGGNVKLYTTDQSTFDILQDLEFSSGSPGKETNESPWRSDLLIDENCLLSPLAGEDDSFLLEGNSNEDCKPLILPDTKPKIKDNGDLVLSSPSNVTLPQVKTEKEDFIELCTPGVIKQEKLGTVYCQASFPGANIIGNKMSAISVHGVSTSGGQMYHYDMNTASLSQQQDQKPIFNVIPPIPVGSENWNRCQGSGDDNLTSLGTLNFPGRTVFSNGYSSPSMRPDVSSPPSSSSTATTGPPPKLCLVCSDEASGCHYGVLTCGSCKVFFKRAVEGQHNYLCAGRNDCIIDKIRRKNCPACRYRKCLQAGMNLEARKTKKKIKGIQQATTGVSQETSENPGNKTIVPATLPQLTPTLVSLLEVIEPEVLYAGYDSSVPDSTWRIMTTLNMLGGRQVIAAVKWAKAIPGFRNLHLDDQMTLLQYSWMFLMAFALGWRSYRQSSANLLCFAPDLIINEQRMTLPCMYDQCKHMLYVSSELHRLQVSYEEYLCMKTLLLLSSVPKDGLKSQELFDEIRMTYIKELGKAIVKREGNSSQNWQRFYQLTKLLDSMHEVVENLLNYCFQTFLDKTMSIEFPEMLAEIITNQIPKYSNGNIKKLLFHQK
To be noted: AZ-GR cells, 24 h, agonist mode. As for the experimental part:
as §1
as §3, with “Model activator of GR was dexamethasone (DEX; 0.1 µM). Treatments” for “Treatments”

Series [4] deals with AZ-GR cells. Nature of the series: MTT cytotoxicity test in AZ-GR cells. As for the experimental part: as §1
as §3, with “Model activator of GR was dexamethasone (DEX; 0.1 µM). Treatments” for “Treatments”

Series [5] has as its target T2, pregnane X receptor PXR (Homo sapiens, UniProt O75469).
T2 sequence (O75469 1-434): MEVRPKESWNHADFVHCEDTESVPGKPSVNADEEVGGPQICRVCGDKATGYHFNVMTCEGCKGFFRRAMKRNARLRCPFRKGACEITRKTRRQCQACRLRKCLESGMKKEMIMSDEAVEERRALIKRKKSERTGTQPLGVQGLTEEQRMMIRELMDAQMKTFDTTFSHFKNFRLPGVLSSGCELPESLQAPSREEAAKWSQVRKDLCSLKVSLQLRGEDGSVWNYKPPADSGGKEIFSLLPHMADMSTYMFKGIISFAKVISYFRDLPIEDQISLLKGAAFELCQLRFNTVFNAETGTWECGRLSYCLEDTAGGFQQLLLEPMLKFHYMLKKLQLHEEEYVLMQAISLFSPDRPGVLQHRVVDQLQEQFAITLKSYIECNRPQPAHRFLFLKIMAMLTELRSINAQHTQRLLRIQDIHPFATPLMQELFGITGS
The series can be described thus: PXR gene reporter assay (p3A4-luc in LS174T cells), agonist mode. How it is done:
as §1, §2, §3
Background: Reporter assays use an easily measured gene product as a stand-in for the process of interest.

Series [6] is described as follows: MTT cytotoxicity test in LS174T cells. The conditions noted are these: human, LS174T cells. As for the experimental part:
as §1, §2, §3

Series [7] deals with T1, glucocorticoid receptor GR. Nature of the series: GR gene reporter assay in AZ-GR cells, antagonist mode with dexamethasone. Format: cell-based. To be noted: in the presence of DEX 0.1 µM, 24 h, read-out: GR activation, antagonist mode IC50. How it is done: as §1
as §3, with “Model activator of GR was dexamethasone (DEX; 0.1 µM). Treatments” for “Treatments”

Series [8] can be described thus: MTT cytotoxicity test in AZ-GR cells. To be noted: human, AZ-GR cells (stably transfected GR gene reporter cell line), cytotoxicity in AZ-GR cells IC50, MTT, 24 h. As for the experimental part: as §1
as §3, with “Model activator of GR was dexamethasone (DEX; 0.1 µM). Treatments” for “Treatments”

For series [9], the system named is CYP3A4-mediated luciferase activity in HepG2 cells. Also on record: method as in PMID 12235278, PMID 20832446. To be noted: HepG2 cells reporter gene assay; cited from earlier work.
Series [10] deals with CYP3A4 mRNA in primary human hepatocytes. Also on record: method as in PMID 12695340. The conditions noted are these: 100 µM–200 µM OME; cited from earlier work.

These results are taken from paper PMC4139355 (PLoS ONE, 2014).

The structures appear in SMILES notation. Read-outs that look alike come from different tables or passages of the source. Where only a bound is given, the exact number is not on record here.

As for `Cc1c(OCC(F)(F)F)ccnc1C[S+]([O-])c1nc2ccccc2[nH]1` (stereo not drawn) [LAN, lansoprazole], the “induction of CYP3A4 protein (in words)” value in series [1] is given as “induced CYP3A4 protein”. The “viability of LS174T cells (in words)” value in [2] was “did not observe significant decline in viability”. Besides, the “effect on basal activity of GR (in words)” value in [3] is recorded as “weak effects on basal activity of GR”.

What is called IC50 is the concentration needed to halve the response being measured. Turning to `COc1ccc2[nH]c([S+]([O-])Cc3ncc(C)c(OC)c3C)nc2c1` (racemic) [rac-OME, rac-omeprazole], the IC50 in series [2] and in series [4] was over 250 µM throughout.

As usually defined, the EC50 is the concentration needed to bring the measured effect to its halfway point. Take `COc1ccc2nc([S@+]([O-])Cc3ncc(C)c(OC)c3C)[nH]c2c1` [R-OME, R-omeprazole]: the IC50 in series [2] and in [4] was over 250 µM throughout. In series [5] (24 h, LS174T cells with p3A4-luc), the “PXR activation, agonist mode (in words)” value was “strongly activated PXR in concentrations 100 µM and 250 µM”. Also, the EC50 in series [5] (read-out: PXR activation, agonist mode EC50, 24 h, LS174T cells with p3A4-luc, absence of RIF) was determined as 25.3 ± 3.1 µM.

On to `Cc1c(OCC(F)(F)F)ccnc1C[S+]([O-])c1nc2ccccc2[nH]1` (racemic) [rac-LAN, rac-lansoprazole], for which the IC50 in series [2] was over 100 µM; in series [4], 200 ± 19.5 µM.

Regarding `Cc1c(OCC(F)(F)F)ccnc1C[S@@+]([O-])c1nc2ccccc2[nH]1` [R-LAN, R-lansoprazole], the 50% inhibitory concentration (IC50) at 24 h was over 100 µM in [6] and 184 ± 2.9 µM in series [8]. Besides, the IC50 in [7] is about 100 µM.

For the compound `COc1ccc2nc([S@@+]([O-])Cc3ncc(C)c(OC)c3C)[nH]c2c1` [S-OME, S-omeprazole], the IC50 at 24 h was over 250 µM in series [6] and 214 µM in [8]. The same compound yielded an EC50 in [5] of 2 ± 0.6 µM. The “PXR activation, agonist mode (in words)” value in series [5] (human, 24 h) is “activated PXR in concentrations 10 µM and 100 µM with drop of activation at 250 µM”.

With `Cc1c(OCC(F)(F)F)ccnc1C[S@+]([O-])c1nc2ccccc2[nH]1` [S-LAN, S-lansoprazole], in series [1], the “induction of CYP3A4 protein (in words)” value was “strongest effects”. In addition, the half-maximal inhibitory concentration (IC50) in series [2] is over 100 µM; in series [4] it was 200 ± 6.5 µM.

Regarding `COc1ccc2[nH]c([S+]([O-])Cc3ncc(C)c(OC)c3C)nc2c1` (stereo not drawn) [OME, omeprazole], in [9], the “induction of CYP3A4-mediated luciferase activity (in words)” value is listed as “showed an induction of CYP3A4-mediated luciferase activity”. Also, in series [2], the “viability of LS174T cells (in words)” value is “did not observe significant decline in viability”. For the same compound, in [10], the “CYP3A4 mRNA expression induction” value is recorded as 4 fold.
